Measurements: US7687490B2, “2-thioethenyl substituted carbapenem derivatives” (Meiji Seika Kaisha, Ltd., priority 2005, dated 2010)
≈ marks a conversion by molar mass, not a printed value.

Assays:
Experiment in all cases: Antimicrobial activity, MIC (Test Example 1)
Format in all cases: cell-based
M. catarrhalis W-500 = conditions: Moraxella catarrhalis, W500, Sensitivity Disk agar-N+5% Horse blood, inoculants 10^6 CFU/ml, read-out: minimum inhibitory concentrations (MIC)
Description: (§1) The minimum inhibitory concentrations (MIC, μg/ml) of representative compounds, among the novel carbapenem derivatives of the present invention, to various pathogenic bacteria were measured in accordance with the method described in CHEMOTHERAPY, vol. 16, No. 1, 99, 1968. The culture medium for the measurement is Sensitivity Disk agar-N+5% Horse blood, and the amount of inoculants used is 10^6 CFU/ml.

H. influenzae 870 = conditions: Sensitivity Disk agar-N+5% Horse blood, inoculants 10^6 CFU/ml; for MIC: Haemophilus influenzae, read-out: minimum inhibitory concentrations (MIC)
Description: as §1

S. aureus 209P JC-1 = conditions: Sensitivity Disk agar-N+5% Horse blood, inoculants 10^6 CFU/ml; for MIC: Staphylococcus aureus, read-out: minimum inhibitory concentrations (MIC)
Description: as §1

E. coli W4680 = conditions: Sensitivity Disk agar-N+5% Horse blood, inoculants 10^6 CFU/ml; for MIC: Escherichia coli, read-out: minimum inhibitory concentrations (MIC)
Description: as §1

H. influenzae Rd = conditions: Sensitivity Disk agar-N+5% Horse blood, inoculants 10^6 CFU/ml; for MIC: Haemophilus influenzae, read-out: minimum inhibitory concentrations (MIC)
Description: as §1

H. influenzae PRC44 = conditions: Sensitivity Disk agar-N+5% Horse blood, inoculants 10^6 CFU/ml; for MIC: Haemophilus influenzae, read-out: minimum inhibitory concentrations (MIC)
Description: as §1

S. pneumoniae 197 = conditions: Streptococcus pneumoniae, Sensitivity Disk agar-N+5% Horse blood, inoculants 10^6 CFU/ml, read-out: minimum inhibitory concentrations (MIC)
Description: as §1

K. pneumoniae GN69 = conditions: Sensitivity Disk agar-N+5% Horse blood, inoculants 10^6 CFU/ml; for MIC: Klebsiella pneumoniae, read-out: minimum inhibitory concentrations (MIC)
Description: as §1

S. pneumoniae PRC53 = conditions: Sensitivity Disk agar-N+5% Horse blood, inoculants 10^6 CFU/ml; for MIC: Streptococcus pneumoniae, read-out: minimum inhibitory concentrations (MIC)
Description: as §1

S. pneumoniae R6 = conditions: Sensitivity Disk agar-N+5% Horse blood, inoculants 10^6 CFU/ml; for MIC: Streptococcus pneumoniae, read-out: minimum inhibitory concentrations (MIC)
Description: as §1

Row | SMILES | MIC (M. catarrhalis W-500) | MIC (H. influenzae 870) | MIC (S. aureus 209P JC-1) | MIC (E. coli W4680) | MIC (H. influenzae Rd) | MIC (H. influenzae PRC44) | MIC (S. pneumoniae 197) | MIC (K. pneumoniae GN69) | MIC (S. pneumoniae PRC53) | MIC (S. pneumoniae R6) | minimum inhibitory concentrations (MIC) (H. influenzae 870) | minimum inhibitory concentrations (MIC) (S. aureus 209P JC-1) | minimum inhibitory concentrations (MIC) (E. coli W4680) | minimum inhibitory concentrations (MIC) (H. influenzae Rd) | minimum inhibitory concentrations (MIC) (H. influenzae PRC44) | minimum inhibitory concentrations (MIC) (K. pneumoniae GN69) | minimum inhibitory concentrations (MIC) (S. pneumoniae PRC53) | minimum inhibitory concentrations (MIC) (S. pneumoniae R6)
1 | C[C@@H](O)[C@H]1C(=O)N2C(C(=O)[O-])=C(S/C=C\c3scnc3CO)[C@H](C)[C@H]12.[Na+] [Example 41, Sodium (1R,5S,6S)-6-((1R)-1-hydroxyethyl)-2-[[(Z)-2-(4-hydroxymethylthiazol-5-yl)ethen-1-yl]thio]-1-methyl-1-carbapen-2-em-3-carboxylate] | 0.063 mg/L | 0.125 mg/L | 0.031 mg/L | 1 mg/L | 0.031 mg/L | 0.125 mg/L | 0.125 mg/L | 0.5 mg/L | 0.063 mg/L | 0.008 mg/L | – | – | – | – | – | – | – | –
2 | C[C@@H](O)[C@H]1C(=O)N2C(C(=O)[O-])=C(S/C=C\c3scnc3C(=O)N(C)C)[C@H](C)[C@H]12.[Na+] [Example 43, Sodium (1R,5S,6S)-2-[[(Z)-2-(4-N,N-dimethylcarbamoylthiazol-5-yl)ethen-1-yl]thio]-6-((1R)-1-hydroxyethyl)-1-methyl-1-carbapen-2-em-3-carboxylate] | – | – | – | – | – | – | – | – | – | – | 0.25 mg/L | 0.063 mg/L | 4 mg/L | 0.031 mg/L | 0.125 mg/L | 4 mg/L | 0.063 mg/L | 0.008 mg/L
3 | C[C@@H](O)[C@H]1C(=O)N2C(C(=O)[O-])=C(S/C=C\c3nc(CO)cs3)[C@H](C)[C@H]12.[Na+] [Example 44, Sodium (1R,5S,6S)-6-((1R)-1-hydroxyethyl)-2-[[(Z)-2-(4-hydroxymethylthiazol-2-yl)ethen-1-yl]thio]-1-methyl-1-carbapen-2-em-3-carboxylate] | 0.063 mg/L | 0.125 mg/L | 0.031 mg/L | 4 mg/L | 0.031 mg/L | 0.063 mg/L | 0.25 mg/L | 4 mg/L | 0.063 mg/L | 0.008 mg/L | – | – | – | – | – | – | – | –
4 | C[C@@H](O)[C@H]1C(=O)N2C(C(=O)[O-])=C(S/C=C/c3scnc3CO)[C@H](C)[C@H]12.[Na+] [Example 61, Sodium (1R,5S,6S)-6-((1R)-1-hydroxyethyl)-2-[[(E)-2-(4-hydroxymethylthiazol-5-yl)ethen-1-yl]thio]-1-methyl-1-carbapen-2-em-3-carboxylate] | 0.063 mg/L | 0.125 mg/L | 0.063 mg/L | 8 mg/L | 0.031 mg/L | 0.125 mg/L | 1 mg/L | 8 mg/L | 0.25 mg/L | 0.031 mg/L | – | – | – | – | – | – | – | –
5 | C[C@@H](O)[C@H]1C(=O)N2C(C(=O)[O-])=C(S/C=C\c3ncsc3CO)[C@H](C)[C@H]12.[Na+] [Example 78, Sodium (1R,5S,6S)-6-((1R)-1-hydroxyethyl)-2-[[(Z)-2-(5-hydroxymethylthiazol-4-yl)ethen-1-yl]thio]-1-methyl-1-carbapen-2-em-3-carboxylate] | 0.25 mg/L | 0.125 mg/L | 0.031 mg/L | 8 mg/L | 0.031 mg/L | 0.063 mg/L | 0.25 mg/L | 8 mg/L | 0.063 mg/L | 0.008 mg/L | – | – | – | – | – | – | – | –
6 | C[C@@H](O)[C@H]1C(=O)N2C(C(=O)O)=C(SCCN=CN)C[C@H]12 [IPM, imipenem, reference compound] | 0.063 mg/L (≈ 0.21 µM) | 4 mg/L (≈ 13.4 µM) | 0.016 mg/L (≈ 0.0534 µM) | 0.125 mg/L (≈ 0.418 µM) | 1 mg/L (≈ 3.34 µM) | 16 mg/L (≈ 53.4 µM) | 1 mg/L (≈ 3.34 µM) | 0.125 mg/L (≈ 0.418 µM) | 0.125 mg/L (≈ 0.418 µM) | 0.008 mg/L (≈ 0.0267 µM) | – | – | – | – | – | – | – | –
